Assay results: publication PMC2764408 (Biochemistry, 2008)

Columns and labels:
Format in all cases: binding
[1] = target: T1, monomeric sarcosine oxidase (MSOX) (Bacillus sp. B-0618, UniProt P40859, K266M); test: absorption spectral titration of charge transfer band
T1 sequence (P40859 2-390 K266M): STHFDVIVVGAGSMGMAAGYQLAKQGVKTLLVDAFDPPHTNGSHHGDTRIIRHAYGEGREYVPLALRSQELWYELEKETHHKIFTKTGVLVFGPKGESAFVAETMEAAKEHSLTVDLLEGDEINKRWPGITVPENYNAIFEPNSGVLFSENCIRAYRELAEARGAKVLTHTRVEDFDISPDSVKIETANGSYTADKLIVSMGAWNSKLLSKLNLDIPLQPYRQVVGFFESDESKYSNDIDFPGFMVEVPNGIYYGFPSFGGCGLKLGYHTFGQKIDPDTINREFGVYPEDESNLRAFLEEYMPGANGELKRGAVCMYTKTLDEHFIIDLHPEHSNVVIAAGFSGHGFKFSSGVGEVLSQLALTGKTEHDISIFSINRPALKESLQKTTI

[2] = target: T2, monomeric sarcosine oxidase (MSOX) (Bacillus sp. B-0618, UniProt P40859, K266R); test: as above
T2 sequence (P40859 2-390 K266R): T1 sequence (P40859 2-390 K266M)

[3] = target: T1, monomeric sarcosine oxidase (MSOX); test: stopped-flow diode array, initial charge transfer absorbance
[4] = target: T2, monomeric sarcosine oxidase (MSOX); test: as above

In the case of `CSCC(=O)O` [methylthioacetate], the Kd [1] is reported as 13.3 ± 0.3 mM and the Kd [2] is reported as 6.9 ± 0.1 mM.

`CNCC(=O)O` [sarcosine, N-methylglycine] gave a Kd [3] of 58 ± 10 mM and a Kd [4] of 34 ± 1 mM.
